Laboratory results from patent US8383838B2, “5-oxo-2,3,4,5-tetrahydro-benzo[b]oxepine-4-carboxylic acid amides and 2,3-dihydro-benzo[b]oxepine-4-carboxylic acid amides for treatment and prevention of diabetes typ 1 and 2” (Merck Patent Gesellschaft mit Beschränkter Haftung, priority 2008, dated 2013).

What follows are molecules tested against T1, human GK (Homo sapiens, UniProt P35557) (assay: Glucokinase Activation Screening Assay (coupled enzyme assay with PK and LDH)). Details: activation of human GK in percent of control (control incubation: 2 mM glucose, 0.91% DMSO); compound concentration not stated.
T1 sequence (P35557 1-465): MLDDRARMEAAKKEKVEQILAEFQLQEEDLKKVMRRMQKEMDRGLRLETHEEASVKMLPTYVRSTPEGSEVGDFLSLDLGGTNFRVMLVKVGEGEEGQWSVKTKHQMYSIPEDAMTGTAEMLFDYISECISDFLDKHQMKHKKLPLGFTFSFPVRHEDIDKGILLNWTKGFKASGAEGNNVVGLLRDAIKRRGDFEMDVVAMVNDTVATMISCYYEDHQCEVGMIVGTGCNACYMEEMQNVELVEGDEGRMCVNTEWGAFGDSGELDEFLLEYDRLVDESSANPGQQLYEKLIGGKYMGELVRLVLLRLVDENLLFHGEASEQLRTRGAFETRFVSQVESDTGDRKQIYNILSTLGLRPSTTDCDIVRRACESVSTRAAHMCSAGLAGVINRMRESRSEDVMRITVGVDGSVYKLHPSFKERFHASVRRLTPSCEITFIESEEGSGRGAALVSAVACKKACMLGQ
Type: biochemical
Procedure: Glucokinase Activation Screening Assay
GK activity (human or rat enzyme) is measured by a coupled enzyme assay using pyruvate kinase (PK) and lactate dehydrogenase (LDH) as coupling enzymes. GK activity is calculated from the decline in NADH monitored photometrically with a microtiter plate (MTP) reader at 340 nm.
For screening purposes, the GK assay is routinely run in a 384-MTP format, in a total volume of 33 μl/well. 10 μl of the ATP-regeneration solution (in HEPES-buffer*, pH 7.0, 6.73 U/ml pyruvate kinase, 6.8 U/ml lactate dehydrogenase) and 10 μl of the glucokinase-/glucose solution (15 μg/ml, 6.6 mM glucose in HEPES-buffer*, pH 7.0; the concentration of the glucose stock-solution was 660 mM in Millipore H2O) were mixed together with […] of a 10% DMSO solution (in HEPES-buffer*, pH 7.0) containing 3.3-fold the amounts of the compounds to achieve final compound concentrations in the range between 1 nM to 30 μM (sometimes 300 μM) in the assay solution (s. below). The solutions were mixed for 5 sec, and after a centrifugation at 243×g for 5 min, the solutions were preincubated for 25 min at room temperature.
The reaction was started by the addition of 10 μl of the NADH-/ATP-solution (4.29 mM NADH, 4.95 mM ATP, in HEPES-buffer*). The MTP was shaken for 5 sec., and then, the absorbance at 340 nm was monitored continuously in a MTP-reader (TECAN Spectro fluor plus) for the next 27 min (with a MTP-cycling time of 199 sec.). The final concentrations of the various components were as follows: 49.5 mM Hepes, pH 7.0, 1.49 mM PEP, 1,3 mM NADH, 49.5 mM KCl, 4.96 mM MgCl2, 1.5 mM Mg-ATP, 1.98 mM DTT, 2.04 U/ml pyruvate kinase, 2.06 U/ml lactate-dehydrogenase, 0.91% DMSO, 0.15 μg/well glucokinase, and test compounds in the range between 1 nM and 300 μM.
The change in the optical density (ΔOD340 nm) in the presence of the compound was expressed relative to the ΔOD340 nm, ctrl of the control incubation (in the presence of 2 mM glucose and 0.91% DMSO), taking into account the optical density of the blank sample (incubation in the absence of 2 mM glucose). For the determination of the half maximal effective concentration (EC50), the %-Ctrl-values were plotted in a semi-logarithmic graph against the conc. of the compound of interest. The data points were fitted to a sigmoid curve function (f(x)=((%-Ctrlmax−%-Ctrlmin)/(1−(EC50/x **^n(Hill)))+%-Ctrlmin)) by a non-linear regression analysis.
* Hepes-buffer (50 mM Hepes, pH 7.0, 5 mM MgCl2, 50 mM KCl, 1.5 mM PEP, 0.1% BSA). DTT was added to the Hepes-buffer from a 200X stock solution (in Millipore H2O) freshly each day. The final concentration of DTT in the Hepes-buffer is 2 mM.
CC1(C)COc2cc(-c3ccc(F)cc3)ccc2C(=O)C1C(=O)Nc1ccccn1 (stereo not drawn) [Compound 13, 8-(4-Fluoro-phenyl)-3,3-dimethyl-5-oxo-2,3,4,5-tetrahydro-benzo[b]oxepine-4-carboxylic acid pyridin-2-ylamide] was tested, and the “hGK % CTL” value was 124 % CTL.
For O=C(Nc1ccccn1)C1CCOc2cc(Cl)ccc2C1=O (stereo not drawn) [Compound 5, 8-Chloro-5-oxo-2,3,4,5-tetrahydro-benzo[b]oxepine-4-carboxylic acid pyridin-2-ylamide], the “hGK % CTL” value was 388 % CTL.
In the case of CCc1ccc2c(c1)OCCC(C(=O)Nc1ccccn1)C2=O (stereo not drawn) [Compound 3, 8-Ethyl-5-oxo-2,3,4,5-tetrahydro-benzo[b]oxepine-4-carboxylic acid pyridine-2-ylamide], the “hGK % CTL” value is reported as 291 % CTL.
For CCc1ccc2c(c1)OCCC(C(=O)Nc1nccs1)C2=O (stereo not drawn) [Compound 9, 8-Ethyl-5-oxo-2,3,4,5-tetrahydro-benzo[b]oxepine-4-carboxylic acid thiazol-2-ylamide], the “hGK % CTL” value was 207 % CTL.
O=C(Nc1nccs1)C1CCOc2ccccc2C1=O (stereo not drawn) [Compound 14, 5-Oxo-2,3,4,5-tetrahydro-benzo[b]oxepine-4-carboxylic acid thiazol-2-ylamide] was tested, and the “hGK % CTL” value was 115 % CTL.
In the case of CC1(C)COc2cc(Cl)c(F)cc2C(=O)C1C(=O)Nc1ccccn1 (stereo not drawn) [Compound 16, 8-Chloro-7-fluoro-3,3-dimethyl-5-oxo-2,3,4,5-tetrahydro-benzo[b]oxepine-4-carboxylic acid pyridin-2-ylamide], the “hGK % CTL” value is reported as 181 % CTL.
O=C(Nc1nccs1)C1CCOc2cc(F)ccc2C1=O (stereo not drawn) [Compound 2, 8-Fluoro-5-oxo-2,3,4,5-tetrahydro-benzo[b]oxepine-4-carboxylic acid thiazol-2-ylamide] was tested, and the “hGK % CTL” value was 218 % CTL.
In the case of O=C(Nc1nccs1)C1CCOc2ccc(Cl)cc2C1=O (stereo not drawn) [Compound 11, 7-Chloro-5-oxo-2,3,4,5-tetrahydro-benzo[b]oxepine-4-carboxylic acid thiazol-2-ylamide], the “hGK % CTL” value is reported as 121 % CTL.
In the case of O=C(Nc1nccs1)C1CCOc2cc(Cl)c(Cl)cc2C1=O (stereo not drawn) [Compound 8, 7,8-Dichloro-5-oxo-2,3,4,5-tetrahydro-benzo[b]oxepine-4-carboxylic acid thiazol-2-ylamide], the “hGK % CTL” value is reported as 194 % CTL.
O=C(Nc1ccccn1)C1CCOc2ccc(Oc3ccccc3)cc2C1=O (stereo not drawn) [Compound 15, 5-Oxo-7-phenoxy-2,3,4,5-tetrahydro-benzo[b]oxepine-4-carboxylic acid pyridin-2-ylamide] was tested, and the “hGK % CTL” value was 94 % CTL.
With O=C(Nc1ccccn1)C1CCOc2cc(Cl)c(Cl)cc2C1=O (stereo not drawn) [Compound 1, 7,8-Dichloro-5-oxo-2,3,4,5-tetrahydro-benzo[b]oxepine-4-carboxylic acid pyridine-2-ylamide] the “hGK % CTL” value was 312 % CTL.
CCc1ccc2c(c1)OCC(C)(C)C(C(=O)Nc1ccccn1)C2=O (stereo not drawn) [Compound 17, 8-Ethyl-3,3-dimethyl-5-oxo-2,3,4,5-tetrahydro-benzo[b]oxepine-4-carboxylic acid pyridin-2-ylamide] was tested, and the “hGK % CTL” value was 104 % CTL.
O=C(Nc1nccs1)C1=Cc2ccccc2OCC1 [Compound 18, 2,3-Dihydro-benzo[b]oxepine-4-carboxylic acid thiazol-2-ylamide] was tested, and the “hGK % CTL” value was 161 % CTL.
In the case of O=C(Nc1ccccn1)C1CCOc2ccc(Cl)cc2C1=O (stereo not drawn) [Compound 10, 7-Chloro-5-oxo-2,3,4,5-tetrahydro-benzo[b]oxepine-4-carboxylic acid pyridin-2-ylamide], the “hGK % CTL” value is reported as 192 % CTL.
COc1ccc2c(c1)C(=O)C(C(=O)Nc1ccccn1)CCO2 (stereo not drawn) [Compound 12, 7-Methoxy-5-oxo-2,3,4,5-tetrahydro-benzo[b]oxepine-4-carboxylic acid pyridin-2-ylamide] was tested, and the “hGK % CTL” value was 149 % CTL.
In the case of O=C(Nc1ccccn1)C1CCOc2ccccc2C1=O (stereo not drawn) [Compound 6, 5-Oxo-2,3,4,5-tetrahydro-benzo[b]oxepine-4-carboxylic acid pyridin-2-ylamide], the “hGK % CTL” value is reported as 245 % CTL.
For O=C(Nc1nccs1)C1CCOc2cc(Cl)ccc2C1=O (stereo not drawn) [Compound 7, 8-Chloro-5-oxo-2,3,4,5-tetrahydro-benzo[b]oxepine-4-carboxylic acid thiazol-2-ylamide], the “hGK % CTL” value was 215 % CTL.
With O=C(Nc1ccccn1)C1=Cc2ccccc2OCC1 [Compound 4, 2,3-Dihydro-benzo[b]oxepine-4-carboxylic acid pyridin-2-ylamide] the “hGK % CTL” value was 129 % CTL.
